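GI50: concentration for 50% inhibition of growth. At the TGI there is no net growth.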
Tests used:
Assay in all cases: NCI tumour cell line growth inhibition, 384-well format
T-47D breast = test system: T-47D breast
SW-620 colon = test system: SW-620 colon
NCI-H226 lung = test system: NCI-H226 lung
MCF7 breast = test system: MCF7 breast
NCI-H23 lung = test system: NCI-H23 lung
TK-10 renal = test system: TK-10 renal
MOLT-4 leukemia = test system: MOLT-4 leukemia
EKVX NSCLC = test system: EKVX NSCLC
CAKI-1 renal = test system: CAKI-1 renal
COLO 205 colon = test system: COLO 205 colon
SNB-19 CNS = test system: SNB-19 CNS
LOX IMVI melanoma = test system: LOX IMVI melanoma
IGROV1 ovarian = test system: IGROV1 ovarian
HL-60(TB) leukemia = test system: HL-60(TB) leukemia
BT-549 breast = test system: BT-549 breast
OVCAR-5 ovarian = test system: OVCAR-5 ovarian
NCI-H322M lung = test system: NCI-H322M lung
SK-MEL-2 melanoma = test system: SK-MEL-2 melanoma
NCI-H460 NSCLC = test system: NCI-H460 NSCLC
SF-295 CNS = test system: SF-295 CNS
SK-OV-3 ovarian = test system: SK-OV-3 ovarian
SN12C renal = test system: SN12C renal
OVCAR-4 ovarian = test system: OVCAR-4 ovarian
UACC-257 melanoma = test system: UACC-257 melanoma
SR leukemia = test system: SR leukemia
NCI/ADR-RES ovarian = test system: NCI/ADR-RES ovarian
786-0 renal = test system: 786-0 renal
M14 melanoma = test system: M14 melanoma
HOP-92 NSCLC = test system: HOP-92 NSCLC
UO-31 renal = test system: UO-31 renal

O=C(Nc1ccc(O)c(NS(=O)(=O)c2ccc(F)cc2)c1)c1ccc(-c2ccccc2)cc1
TGI (T-47D breast): 20.7 µM
GI50 (SW-620 colon): 10.2 µM
TGI (SW-620 colon): 22 µM
GI50 (NCI-H226 lung): 8.98 µM
TGI (NCI-H226 lung): 21.1 µM
GI50 (MCF7 breast): 3.87 µM
TGI (MCF7 breast): 15.4 µM
GI50 (NCI-H23 lung): 6.12 µM
TGI (NCI-H23 lung): 18.6 µM
GI50 (TK-10 renal): 3.61 µM
TGI (TK-10 renal): 11.8 µM
GI50 (MOLT-4 leukemia): 1.69 µM
TGI (MOLT-4 leukemia): 3.12 µM
GI50 (EKVX NSCLC): 4.13 µM
TGI (EKVX NSCLC): 14 µM
GI50 (CAKI-1 renal): 5.16 µM
TGI (CAKI-1 renal): 17.7 µM
GI50 (COLO 205 colon): 11.5 µM
TGI (COLO 205 colon): 24 µM
GI50 (SNB-19 CNS): 7.07 µM
TGI (SNB-19 CNS): 19.3 µM
GI50 (LOX IMVI melanoma): 3.87 µM
TGI (LOX IMVI melanoma): 15 µM
GI50 (IGROV1 ovarian): 3.62 µM
TGI (IGROV1 ovarian): 12.2 µM
GI50 (HL-60(TB) leukemia): 1.55 µM
TGI (HL-60(TB) leukemia): 2.91 µM
GI50 (BT-549 breast): 4.01 µM
TGI (BT-549 breast): 13.1 µM
GI50 (OVCAR-5 ovarian): 10.2 µM
TGI (OVCAR-5 ovarian): 21.9 µM
GI50 (NCI-H322M lung): 4.58 µM
TGI (NCI-H322M lung): 16.6 µM
GI50 (SK-MEL-2 melanoma): 10.4 µM
TGI (SK-MEL-2 melanoma): 22.2 µM
GI50 (NCI-H460 NSCLC): 2.9 µM
TGI (NCI-H460 NSCLC): 10.3 µM
GI50 (SF-295 CNS): 10.5 µM
TGI (SF-295 CNS): 22.4 µM
GI50 (SK-OV-3 ovarian): 6.15 µM
TGI (SK-OV-3 ovarian): 18.4 µM
GI50 (SN12C renal): 7.38 µM
TGI (SN12C renal): 19.7 µM
GI50 (OVCAR-4 ovarian): 3.24 µM
TGI (OVCAR-4 ovarian): 14.5 µM
GI50 (UACC-257 melanoma): 7.05 µM
TGI (UACC-257 melanoma): 19.8 µM
GI50 (SR leukemia): 1.65 µM
TGI (SR leukemia): 3.17 µM
GI50 (NCI/ADR-RES ovarian): 5.28 µM
TGI (NCI/ADR-RES ovarian): 17.5 µM
GI50 (786-0 renal): 3.74 µM
TGI (786-0 renal): 12.6 µM
GI50 (M14 melanoma): 6.4 µM
TGI (M14 melanoma): 19 µM
GI50 (HOP-92 NSCLC): 4.12 µM
TGI (HOP-92 NSCLC): 14.4 µM
GI50 (UO-31 renal): 5.25 µM
TGI (UO-31 renal): 16.9 µM

Reference: PubChem BioAssay (NCI)
